Values joined by “and” are separate entries in the source; they are usually repeats but may differ in a detail not shown here. Equal entries are not always repeated.
Columns and labels:
[1] = test system: bacterial strain LF82 binding to the glycoprotein BSA-(Mannose)3; assay: Bacterial Binding Assay (BBA); format: cell-based, Escherichia coli; settings: read-out: Bacterial Binding Assay IC50, LF82/Luciferase strain binding to BSA-(Man)3 coated plates, luminescence
Summary of the method: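 Inhibition of LF82/luciferase E. coli adhesion is read as luminescence after washing off unbound cells. Compound and bacteria (10^7 per well) are co-incubated 40-75 min at room temperature on wells coated with 0.5-2 μg/mL BSA-(Man)3, with BSA-only wells as background; IC50 values derived.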

FimH-CRD [2] = target: T1, FimH-CRD (Escherichia coli, UniProt P08191); assay: Competitive binding assay by fluorescence polarization, assay 1 (compounds prepared by manual dilution); set-up: species or system E. coli
T1 construct: The first 177 amino acids of the FimH protein are expressed as a fusion protein; thrombin tag (printed as 'fusion protein with thrombin') (cleaved yes); made in house; host or cells: bacteria (pET21b plasmid)
Summary of the method: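 FimH-CRD (residues 1-177, tag removed) at 60 nM competed against 5 nM Alexa 647 mannoside probe in 50 mM Tris-Cl pH 7.0, 100 mM NaCl, 1 mM EDTA, 5 mM β-mercaptoethanol, 0.05% BSA, 2.5% DMSO; 5 h, room temperature, dark. Compounds 0.4 nM-75 μM final, 12-point 3-fold, duplicate; Kd from fluorescence polarization displacement curves. Assay 1: manual dilution; assay 2: robotic dilution, plates frozen/thawed.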

FimH-CRD [3] = target: T1, FimH-CRD; assay: Competitive binding assay by fluorescence polarization, assay 2 (compounds prepared by a robotics system, plates frozen and thawed); set-up: species or system E. coli; settings: Assay 2 Kd, 5 nM Alexa 647 mannoside probe, 60 nM FimH-CRD, replicate values in one cell
Method: The first 177 amino acids of the FimH protein are expressed as a fusion protein with thrombin in a pET21b plasmid in bacteria. This FimH protein sequence contains the carbohydrate recognition domain (CRD) and shall be termed FimH-CRD. Following bacterial expression of the protein, the FimH-CRD protein is purified to homogeneity and the thrombin tag removed by protease cleavage. A competitive binding assay by fluorescence polarization is performed using 5 nM of the Alexa 647 mannoside probe and 60 nM of the FimH-CRD. The samples are assayed in a low volume 384 well microtiter plate in a final volume of 20 μl. The final assay buffer conditions are the following, 50 mM Tris-Cl, ph 7.0, 100 mM NaCl, 1 mM EDTA, 5 mM β-mercaptoethanol, 0.05% BSA and 2.5% DMSO. Two assays are performed for FimH, termed assay 1 or assay 2. The assay conditions are the same for both assays except the following: assay 1 has compounds prepared by manual dilution in a serial dilution factor with 12-point dose response while assay 2 has compounds prepared by a robotics system also through a serial dilution factor (12 point dose response) and initially prepared in duplicate in 384 well-Corning polypropylene round bottom plates. The assay 2 plates have compound which is then frozen and must be thawed prior to use. Initially the Alexa 647 probe and the FimH-CRD are added to the assay buffer and then 0.5 μl of test compound (assay 1 or 2) between 0.4 nM to 75 μM final concentration are added (12 point titration with 3-fold serial dilution). Control wells for the Alexa 647 probe are prepared with the same conditions except for the addition of the FimH-CRD protein. Plates are then incubated for 5 hrs at room temperature in the dark and under humid conditions to prevent drying. Plates are read using the SpectraMax Paradigm multi-mode plate reader and the appropriate fluorescent polarization detection cartridge (Alexa-647).
Alexa 647 mannoside probe is prepared using the similar procedure reported for FAM mannoside (Han, Z. et. al., 2010, J. Med. Chem., 53, 4779) and is described in the scheme below.
To a blue colored stirred solution of (2S,3S,4S,5S,6R)-2-(4-aminobutoxy)-6-(hydroxymethyl)tetrahydropyran-3,4,5-triol (2.21 mg, 0.009 mmol) and the (2E)-2-[(2E,4E)-5-[3,3-dimethyl-5-sulfonato-1-(3-sulfonatopropyl)indol-1-ium-2-yl]penta-2,4-dienylidene]-3-[6-(2,5-dioxopyrrolidin-1-yl)oxy-6-oxo-hexyl]-3-methyl-1-(3-sulfonatopropyl)indoline-5-sulfonate (Potassium Ion (3)) (4.9 mg, 0.0044 mmol) in DMF (44 μL) is added Et3N (5.4 mg, 7.0 μL, 0.053 mmol) at RT. The solution is stirred at room temperature over night, concentrated, dissolved in water and purified on 12 g C-18 silica gel cartridge on Isolera system using acetonitrile in water (0 to 40%, 10 CV) and followed by lyophilization to afford Alexa 647 mannoside probe (3.3 mg, 34%) as deep blue solid.
The Kd values of the compounds are determined from dose response curves using twelve concentrations per compound in duplicate. Curves are fitted to data points using Fluorescence Polarization competitive displacement analysis, and Kds are interpolated from the resulting curves using GraphPad Prism software, version […] (GraphPad software Inc., San Diego, Calif., USA).

[4] = Assay 1 Kd, 5 nM Alexa 647 mannoside probe, 60 nM FimH-CRD, replicate values in one cell
[5] = read-out: Assay 1 Kd, 5 nM Alexa 647 mannoside probe, 60 nM FimH-CRD, replicate values in one cell

T1 sequence (P08191 22-177): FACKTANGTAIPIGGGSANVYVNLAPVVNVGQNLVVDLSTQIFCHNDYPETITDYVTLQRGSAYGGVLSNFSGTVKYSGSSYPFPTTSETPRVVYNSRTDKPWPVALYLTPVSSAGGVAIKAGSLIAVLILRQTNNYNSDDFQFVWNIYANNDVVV

| Structure (SMILES) | IC50 [1] | Kd (FimH-CRD [2]; [4]) | Kd (FimH-CRD [2]; [5]) | Kd (FimH-CRD [3]) |
| --- | --- | --- | --- | --- |
| OC[C@H]1O[C@H](C/C=C/c2cccc(/C=C/C[C@H]3O[C@H](CO)[C@@H](O)[C@H](O)[C@@H]3O)c2)[C@@H](O)[C@@H](O)[C@@H]1O [Compound 25, ((2R,3S,4R,5S,6R)-2-(Hydroxymethyl)-6-[(E)-3-[3-[(E)-3-[(2R,3S,4R,5S,6R)-3,4,5-trihydroxy-6-(hydroxymethyl)tetrahydropyran-2-yl]prop-1-enyl]phenyl]allyl]tetrahydropyran-3,4,5-triol)] | 1400 nM | < 5 nM | < 5 nM | 21 nM and 10 nM and 12 nM |
| OC[C@H]1O[C@H](c2ccc(-c3cccc([C@H]4O[C@H](CO)[C@@H](O)[C@H](O)[C@@H]4O)c3)cc2)[C@@H](O)[C@@H](O)[C@@H]1O [Compound 5, (2R,2,3S,3,4R,4,5S,5,6R,6)-6,6([1,1Biphenyl]-3,4diyl)bis(2-(hydroxymethyl)tetrahydro-2H-pyran-3,4,5-triol)] | 580 nM | < 5 nM | < 5 nM | 49 nM and < 5 nM (2×) |
| OC[C@H]1O[C@H](CCc2cccc([C@H]3O[C@H](CO)[C@@H](O)[C@H](O)[C@@H]3O)c2)[C@@H](O)[C@@H](O)[C@@H]1O [Compound 37, ((2R,3S,4R,5S,6R)-2-(Hydroxymethyl)-6-[2-[3-[(2R,3S,4R,5S,6R)-3,4,5-trihydroxy-6-(hydroxymethyl)tetrahydropyran-2-yl]phenyl]ethyl]tetrahydropyran-3,4,5-triol)] | 1650 nM | 7 nM |  | 18 nM and < 5 nM and 12 nM |
| OC[C@H]1O[C@H](c2cccc(OCCCOc3cccc([C@H]4O[C@H](CO)[C@@H](O)[C@H](O)[C@@H]4O)c3)c2)[C@@H](O)[C@@H](O)[C@@H]1O [Compound 44, ((2R,3S,4R,5S,6R)-2-(Hydroxymethyl)-6-[3-[3-[3-[(2R,3S,4R,5S,6R)-3,4,5-trihydroxy-6-(hydroxymethyl)tetrahydropyran-2-yl]phenoxy]propoxy]phenyl]tetrahydropyran-3,4,5-triol)] | 480 nM | < 5 nM | < 5 nM | 6 nM |
| OC[C@H]1O[C@H](C/C=C/c2cccc(C#C[C@H]3O[C@H](CO)[C@@H](O)[C@H](O)[C@@H]3O)c2)[C@@H](O)[C@@H](O)[C@@H]1O [Compound 40, ((2R,3S,4R,5S,6R)-2-(Hydroxymethyl)-6-[(E)-3-[3-[2-[(2R,3S,4R,5S,6R)-3,4,5-trihydroxy-6-(hydroxymethyl)tetrahydropyran-2-yl]ethynyl]phenyl]allyl]tetrahydropyran-3,4,5-triol)] | 43 nM | < 5 nM and 18 nM |  | 8 nM and 10 nM |
| O=C(NCCCCCNC(=O)c1cccc([C@H]2O[C@H](CO)[C@@H](O)[C@H](O)[C@@H]2O)c1)c1cccc([C@H]2O[C@H](CO)[C@@H](O)[C@H](O)[C@@H]2O)c1 [Compound 11, (R,R,S,R,S)-N,N′-(Pentane-1,5-diyl)bis(3-((2R,3S,4R,5S,6R)-3,4,5-trihydroxy-6-(hydroxymethyl)tetrahydro-2H-pyran-2-yl)benzamide)] |  | < 5 nM and 11 nM |  | 16 nM |
| OC[C@H]1O[C@H](c2ccc(-c3ccc([C@H]4O[C@H](CO)[C@@H](O)[C@H](O)[C@@H]4O)cc3)cc2)[C@@H](O)[C@@H](O)[C@@H]1O [Compound 6, (2R,2 ,3S,3,4R,4,5S,5,6R,6)-6,6([1,1Biphenyl]-4,4diyl)bis(2-(hydroxymethyl)tetrahydro-2H-pyran-3,4,5-triol)] | 95 nM | < 5 nM | < 5 nM | < 5 nM and 23 nM |
| O=C(NCCCNC(=O)c1cccc([C@H]2O[C@H](CO)[C@@H](O)[C@H](O)[C@@H]2O)c1)c1cccc([C@H]2O[C@H](CO)[C@@H](O)[C@H](O)[C@@H]2O)c1 [Compound 9, (R,R,S,R,S)-N,N′-(Propane-1,3-diyl)bis(3-((2R,3S,4R,5S,6R)-3,4,5-trihydroxy-6-(hydroxymethyl)tetrahydro-2H-pyran-2-yl)benzamide)] |  | 7 nM and 12 nM |  | 24 nM |
